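Cultured in 96-well plates, cells were exposed to test compound for 48 hours across five concentrations. At the GI50, growth is halved. TGI marks complete inhibition of growth.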
Assays:
Assay in all cases: NCI-60 cell line screen, 48 h
NCI-H226 lung = test system: NCI-H226 lung
SN12C renal = test system: SN12C renal
CAKI-1 renal = test system: CAKI-1 renal
PC-3 prostate = test system: PC-3 prostate
SW-620 colon = test system: SW-620 colon
OVCAR-3 ovarian = test system: OVCAR-3 ovarian
K-562 leukemia = test system: K-562 leukemia
SF-295 CNS = test system: SF-295 CNS
T-47D breast = test system: T-47D breast
NCI-H23 lung = test system: NCI-H23 lung
SK-MEL-28 melanoma = test system: SK-MEL-28 melanoma
HOP-92 NSCLC = test system: HOP-92 NSCLC
MDA-MB-231 breast = test system: MDA-MB-231 breast
M14 melanoma = test system: M14 melanoma
KM12 colon = test system: KM12 colon
HS 578T breast = test system: HS 578T breast
NCI/ADR-RES ovarian = test system: NCI/ADR-RES ovarian
OVCAR-8 ovarian = test system: OVCAR-8 ovarian
TK-10 renal = test system: TK-10 renal
NCI-H460 lung = test system: NCI-H460 lung
SK-MEL-2 melanoma = test system: SK-MEL-2 melanoma
IGROV1 ovarian = test system: IGROV1 ovarian
UO-31 renal = test system: UO-31 renal
MDA-MB-435 = test system: MDA-MB-435
HCT-15 colon = test system: HCT-15 colon
SK-MEL-5 melanoma = test system: SK-MEL-5 melanoma
HCC-2998 colon = test system: HCC-2998 colon
CCRF-CEM leukemia = test system: CCRF-CEM leukemia
UACC-62 melanoma = test system: UACC-62 melanoma
U251 CNS = test system: U251 CNS
MCF7 breast = test system: MCF7 breast
UACC-257 melanoma = test system: UACC-257 melanoma
SF-268 CNS = test system: SF-268 CNS
HT29 colon = test system: HT29 colon
SNB-19 CNS = test system: SNB-19 CNS
HL-60(TB) leukemia = test system: HL-60(TB) leukemia
NCI-H522 lung = test system: NCI-H522 lung
HCT-116 colon = test system: HCT-116 colon
HOP-62 NSCLC = test system: HOP-62 NSCLC
EKVX NSCLC = test system: EKVX NSCLC
786-0 renal = test system: 786-0 renal
OVCAR-5 ovarian = test system: OVCAR-5 ovarian
BT-549 breast = test system: BT-549 breast
ACHN renal = test system: ACHN renal
COLO 205 colon = test system: COLO 205 colon
RXF 393 renal = test system: RXF 393 renal
A549 NSCLC = test system: A549 NSCLC
LOX IMVI melanoma = test system: LOX IMVI melanoma
DU-145 prostate = test system: DU-145 prostate
RPMI-8226 leukemia = test system: RPMI-8226 leukemia
OVCAR-4 ovarian = test system: OVCAR-4 ovarian
SNB-75 CNS = test system: SNB-75 CNS
MOLT-4 leukemia = test system: MOLT-4 leukemia
A498 renal = test system: A498 renal
SK-OV-3 ovarian = test system: SK-OV-3 ovarian
SF-539 CNS = test system: SF-539 CNS

O=C(NNC(=O)C1CCN(S(=O)(=O)c2ccc(-c3ccccc3)cc2)CC1)c1ccc(C(F)(F)F)cc1
GI50 (NCI-H226 lung): 14.6 µM
TGI (NCI-H226 lung): > 50 µM
GI50 (SN12C renal): 21.4 µM
TGI (SN12C renal): > 50 µM
GI50 (CAKI-1 renal): > 50 µM
TGI (CAKI-1 renal): > 50 µM
GI50 (PC-3 prostate): > 50 µM
TGI (PC-3 prostate): > 50 µM
GI50 (SW-620 colon): > 50 µM
TGI (SW-620 colon): > 50 µM
GI50 (OVCAR-3 ovarian): > 50 µM
TGI (OVCAR-3 ovarian): > 50 µM
GI50 (K-562 leukemia): > 50 µM
TGI (K-562 leukemia): > 50 µM
GI50 (SF-295 CNS): > 50 µM
TGI (SF-295 CNS): > 50 µM
GI50 (T-47D breast): 3.99 µM
TGI (T-47D breast): > 50 µM
GI50 (NCI-H23 lung): 14.1 µM
TGI (NCI-H23 lung): > 50 µM
GI50 (SK-MEL-28 melanoma): > 50 µM
TGI (SK-MEL-28 melanoma): > 50 µM
GI50 (HOP-92 NSCLC): 2.89 µM
TGI (HOP-92 NSCLC): > 50 µM
GI50 (MDA-MB-231 breast): 1.58 µM
TGI (MDA-MB-231 breast): 34.9 µM
GI50 (M14 melanoma): 15.9 µM
TGI (M14 melanoma): > 50 µM
GI50 (KM12 colon): > 50 µM
TGI (KM12 colon): > 50 µM
GI50 (HS 578T breast): 38.3 µM
TGI (HS 578T breast): > 50 µM
GI50 (NCI/ADR-RES ovarian): > 50 µM
TGI (NCI/ADR-RES ovarian): > 50 µM
GI50 (OVCAR-8 ovarian): 22 µM
TGI (OVCAR-8 ovarian): > 50 µM
GI50 (TK-10 renal): 20.8 µM
TGI (TK-10 renal): > 50 µM
GI50 (NCI-H460 lung): > 50 µM
TGI (NCI-H460 lung): > 50 µM
GI50 (SK-MEL-2 melanoma): > 50 µM
TGI (SK-MEL-2 melanoma): > 50 µM
GI50 (IGROV1 ovarian): > 50 µM
TGI (IGROV1 ovarian): > 50 µM
GI50 (UO-31 renal): > 50 µM
TGI (UO-31 renal): > 50 µM
GI50 (MDA-MB-435): > 50 µM
TGI (MDA-MB-435): > 50 µM
GI50 (HCT-15 colon): > 50 µM
TGI (HCT-15 colon): > 50 µM
GI50 (SK-MEL-5 melanoma): > 50 µM
TGI (SK-MEL-5 melanoma): > 50 µM
GI50 (HCC-2998 colon): 20.6 µM
TGI (HCC-2998 colon): > 50 µM
GI50 (CCRF-CEM leukemia): > 50 µM
TGI (CCRF-CEM leukemia): > 50 µM
GI50 (UACC-62 melanoma): > 50 µM
TGI (UACC-62 melanoma): > 50 µM
GI50 (U251 CNS): 11.8 µM
TGI (U251 CNS): > 50 µM
GI50 (MCF7 breast): > 50 µM
TGI (MCF7 breast): > 50 µM
GI50 (UACC-257 melanoma): > 50 µM
TGI (UACC-257 melanoma): > 50 µM
GI50 (SF-268 CNS): > 50 µM
TGI (SF-268 CNS): > 50 µM
GI50 (HT29 colon): > 50 µM
TGI (HT29 colon): > 50 µM
GI50 (SNB-19 CNS): 15.4 µM
TGI (SNB-19 CNS): > 50 µM
GI50 (HL-60(TB) leukemia): > 50 µM
TGI (HL-60(TB) leukemia): > 50 µM
GI50 (NCI-H522 lung): > 50 µM
TGI (NCI-H522 lung): > 50 µM
GI50 (HCT-116 colon): 4.77 µM
TGI (HCT-116 colon): 13.2 µM
GI50 (HOP-62 NSCLC): 5.46 µM
TGI (HOP-62 NSCLC): 16.5 µM
GI50 (EKVX NSCLC): > 50 µM
TGI (EKVX NSCLC): > 50 µM
GI50 (786-0 renal): 7.21 µM
TGI (786-0 renal): 34.1 µM
GI50 (OVCAR-5 ovarian): > 50 µM
TGI (OVCAR-5 ovarian): > 50 µM
GI50 (BT-549 breast): 44.1 µM
TGI (BT-549 breast): > 50 µM
GI50 (ACHN renal): > 50 µM
TGI (ACHN renal): > 50 µM
GI50 (COLO 205 colon): > 50 µM
TGI (COLO 205 colon): > 50 µM
GI50 (RXF 393 renal): 20.3 µM
TGI (RXF 393 renal): > 50 µM
GI50 (A549 NSCLC): > 50 µM
TGI (A549 NSCLC): > 50 µM
GI50 (LOX IMVI melanoma): > 50 µM
TGI (LOX IMVI melanoma): > 50 µM

CSc1nc(-c2ccccc2)c(C#N)c(=O)[nH]1
TGI (NCI-H226 lung): > 100 µM
TGI (SN12C renal): > 100 µM
TGI (CAKI-1 renal): > 100 µM
TGI (DU-145 prostate): > 100 µM
TGI (PC-3 prostate): > 100 µM
TGI (SW-620 colon): > 100 µM
TGI (OVCAR-3 ovarian): > 100 µM
TGI (K-562 leukemia): > 100 µM
TGI (SF-295 CNS): > 100 µM
TGI (T-47D breast): > 100 µM
TGI (NCI-H23 lung): > 100 µM
TGI (SK-MEL-28 melanoma): > 100 µM
TGI (RPMI-8226 leukemia): > 100 µM
TGI (OVCAR-4 ovarian): > 100 µM
TGI (SNB-75 CNS): > 100 µM
TGI (HOP-92 NSCLC): > 100 µM
TGI (MOLT-4 leukemia): > 100 µM
TGI (MDA-MB-231 breast): > 100 µM
TGI (M14 melanoma): > 100 µM
TGI (KM12 colon): > 100 µM
TGI (HS 578T breast): > 100 µM
TGI (NCI/ADR-RES ovarian): > 100 µM
TGI (A498 renal): > 100 µM
TGI (OVCAR-8 ovarian): > 100 µM
TGI (TK-10 renal): > 100 µM
TGI (NCI-H460 lung): > 100 µM
TGI (SK-MEL-2 melanoma): > 100 µM
TGI (IGROV1 ovarian): > 100 µM
TGI (UO-31 renal): > 100 µM
TGI (MDA-MB-435): > 100 µM
TGI (SK-OV-3 ovarian): > 100 µM
TGI (HCT-15 colon): > 100 µM
TGI (SK-MEL-5 melanoma): > 100 µM
TGI (HCC-2998 colon): > 100 µM
TGI (CCRF-CEM leukemia): > 100 µM
TGI (UACC-62 melanoma): > 100 µM
TGI (U251 CNS): > 100 µM
TGI (MCF7 breast): > 100 µM
TGI (UACC-257 melanoma): > 100 µM
TGI (SF-539 CNS): > 100 µM
TGI (SF-268 CNS): > 100 µM
TGI (HT29 colon): > 100 µM
TGI (SNB-19 CNS): > 100 µM
TGI (HL-60(TB) leukemia): > 100 µM
TGI (NCI-H522 lung): > 100 µM
TGI (HCT-116 colon): > 100 µM
TGI (HOP-62 NSCLC): > 100 µM
TGI (EKVX NSCLC): > 100 µM
TGI (786-0 renal): > 100 µM
TGI (OVCAR-5 ovarian): > 100 µM
TGI (BT-549 breast): > 100 µM
TGI (ACHN renal): > 100 µM
TGI (COLO 205 colon): > 100 µM
TGI (RXF 393 renal): > 100 µM
TGI (A549 NSCLC): > 100 µM

From PubChem BioAssay (NCI)
